Target: T1, SIRT1 (Homo sapiens, UniProt Q96EB6)
T1 sequence (Q96EB6 1-747): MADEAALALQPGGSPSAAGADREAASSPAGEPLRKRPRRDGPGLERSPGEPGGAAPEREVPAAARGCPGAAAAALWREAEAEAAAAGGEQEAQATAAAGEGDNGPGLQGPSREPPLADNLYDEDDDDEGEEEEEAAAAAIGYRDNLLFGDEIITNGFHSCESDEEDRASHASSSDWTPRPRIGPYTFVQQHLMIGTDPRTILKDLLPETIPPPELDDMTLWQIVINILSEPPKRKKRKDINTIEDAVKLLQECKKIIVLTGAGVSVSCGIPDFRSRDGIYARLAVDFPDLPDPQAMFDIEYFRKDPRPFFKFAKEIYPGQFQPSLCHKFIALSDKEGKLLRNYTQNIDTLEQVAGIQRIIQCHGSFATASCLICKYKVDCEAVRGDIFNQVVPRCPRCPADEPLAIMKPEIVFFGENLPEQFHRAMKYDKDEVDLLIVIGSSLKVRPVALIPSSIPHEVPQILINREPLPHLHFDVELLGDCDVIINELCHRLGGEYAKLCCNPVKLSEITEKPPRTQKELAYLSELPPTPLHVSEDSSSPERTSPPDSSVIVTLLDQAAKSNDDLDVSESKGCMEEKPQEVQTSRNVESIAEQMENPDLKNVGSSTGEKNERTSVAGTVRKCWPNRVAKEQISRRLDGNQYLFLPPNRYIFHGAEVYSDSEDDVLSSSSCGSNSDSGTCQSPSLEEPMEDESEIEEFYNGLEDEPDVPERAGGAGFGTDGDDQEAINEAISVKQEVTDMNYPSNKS
Assay: Trp mass spectrometry assay of SIRT1 activation
Format: biochemical
Conditions: Trp peptide Ac-R-H-K-K(Ac)-W-NH2 0.5 μM, 120 μM βNAD+, 10 nM SIRT1, 25 min, 25° C.
Excerpt: Mass spectrometry based assays were used to identify modulators of SIRT1 activity. […] The peptide was labeled with the fluorophore 5TMR (excitation 540 nm/emission 580 nm) at the C-terminus. The sequence of the peptide substrate was based on p53 with several modifications. In addition, the methionine residue naturally present in the sequence was replaced with the norleucine because the methionine may be susceptible to oxidation during synthesis and purification.
The Trp mass spectrometry assay was conducted as follows. […] The SIRT1 protein was obtained by cloning the SirT1 gene into a T7-promoter containing vector, which was then expressed in BL21(DE3) bacterial cells and purified as described in further detail below. Test compound was added at varying concentrations to this reaction mixture and the resulting reactions were monitored. After the 25 minute incubation with SIRT1, 10 μL of 10% formic acid was added to stop the reaction. The resulting reactions were sealed and frozen for later mass spec analysis. The relative SIRT1 activity was then determined by measuring the amount of O-acetyl-ADP-ribose (OAADPR) formed (or, alternatively, the amount of deacetylated Trp peptide generated) by the NAD-dependent sirtuin deacetylation reaction in the presence of varying concentrations of the test compound versus control reactions lacking the test compound.
The degree to which the test agent activated deacetylation by SIRT1 was expressed as EC1.5 (i.e., the concentration of compound required to increase SIRT1 activity by 50% over the control lacking test compound), and Percent Maximum Activation (i.e., the maximum activity relative to control (100%) obtained for the test compound).
This time point was the same as that used for test compounds and, within the linear range, the endpoint represents a change in velocity.
For the above assay, SIRT1 protein was expressed and purified as follows. The SirT1 gene was cloned into a T7-promoter containing vector and transformed into BL21(DE3). The protein was expressed by induction with 1 mM IPTG as an N-terminal His-tag fusion protein at 18° C. overnight and harvested at 30,000×g. Cells were lysed with lysozyme in lysis buffer (50 mM Tris-HCl, 2 mM Tris[2-carboxyethyl]phosphine (TCEP), 10 μM ZnCl2, 200 mM NaCl) and further treated with sonication for 10 min for complete lysis. The protein was purified over a Ni-NTA column (Amersham) and fractions containing pure protein were pooled, concentrated and run over a sizing column (Sephadex S200 26/60 global). The peak containing soluble protein was collected and run on an Ion-exchange column (MonoQ). Gradient elution (200 mM-500 mM NaCl) yielded pure protein. This protein was concentrated and dialyzed against dialysis buffer (20 mM Tris-HCl, 2 mM TCEP) overnight. The protein was aliquoted and frozen at −80° C. until further use.
“NT” means not tested; “ND” means not determinable.

Row | SMILES | TRP Activity (EC1.5, concentration of compound required to increase SIRT1 activity by 50% over control) | TRP MAX RESP (percent maximum fold activation relative to control)
1 | O=C(Nc1cncc(OC[C@H](O)CO)n1)N1c2nc(-c3cccc(C(F)(F)F)c3)ncc2N2CCC[C@H]1C2 [Example 95, (9S)—N-(6-((R)-2,3-dihydroxypropoxy)pyrazin-2-yl)-2-(3-(trifluoromethyl)phenyl)-8,9-dihydro-6H-5,9-methanopyrimido[4,5-b][1,4]diazocine-10(7H)-carboxamide] | A (EC1.5<1 μM) | A (Fold activation ≥150%)
2 | O=C(Nc1nccc(OC[C@@H](O)CO)n1)N1c2nc(-c3cccc(C(F)(F)F)c3)ncc2N2CCC[C@H]1C2 [Example 103, (9S)—N-(4-((S)-2,3-dihydroxypropoxy)pyrimidin-2-yl)-2-(3-(trifluoromethyl)phenyl)-8,9-dihydro-6H-5,9-methanopyrimido[4,5-b][1,4]diazocine-10(7H)-carboxamide] | B (EC1.5 1-25 μM) | A (Fold activation ≥150%)
3 | O=C(Nc1cncc(OC[C@@H](O)CO)n1)N1c2nc(-c3cccc(C(F)(F)F)c3)ncc2N2CC[C@H]1C2 [Example 50, (8S)—N-(6-((S)-2,3-dihydroxypropoxy)pyrazin-2-yl)-2-(3-(trifluoromethyl)phenyl)-7,8-dihydro-5,8-methanopyrimido[4,5-b][1,4]diazepine-9(6H)-carboxamide] | B (EC1.5 1-25 μM) | A (Fold activation ≥150%)
4 | CCNC(=O)N1c2nc(-c3cccc(C(F)(F)F)c3)ncc2N2CC[C@H]1C2.Cl [Example 21, (8S)—N-ethyl-2-(3-(trifluoromethyl)phenyl)-7,8-dihydro-5,8-methano pyrimido[4,5-b][1,4]diazepine-9(6H)-carboxamide, Hydrochloride] | A (EC1.5<1 μM) | A (Fold activation ≥150%)
5 | O=C(Nc1nccc(OC[C@@H](O)CO)n1)N1c2nc(-c3cccc(C(F)(F)F)c3)ncc2N2CC[C@H]1C2 [Example 51, (8S)—N-(4-((S)-2,3-dihydroxypropoxy)pyrimidin-2-yl)-2-(3-(trifluoromethyl)phenyl)-7,8-dihydro-5,8-methanopyrimido[4,5-b][1,4]diazepine-9(6H)-carboxamide] | B (EC1.5 1-25 μM) | A (Fold activation ≥150%)
6 | O=C(Nc1cnnc(OC[C@@H](O)CO)c1)N1c2nc(-c3cccc(C(F)(F)F)c3)ncc2N2CCC[C@H]1C2 [Example 108, (9S)—N-(6-((S)-2,3-dihydroxypropoxy)pyridazin-4-yl)-2-(3-(trifluoromethyl)phenyl)-8,9-dihydro-6H-5,9-methanopyrimido[4,5-b][1,4]diazocine-10(7H)-carboxamide] | A (EC1.5<1 μM) | A (Fold activation ≥150%)
7 | O=C(Nc1cccc(OC[C@@H](O)CO)n1)N1c2nc(-c3cccc(C(F)(F)F)c3)ncc2N2CC[C@H]1C2 [Example 31, (8S)—N-(6-((S)-2,3-dihydroxypropoxy)pyridin-2-yl)-2-(3-(trifluoromethyl)phenyl)-7,8-dihydro-5,8-methanopyrimido[4,5-b][1,4]diazepine-9(6H)-carboxamide] | A (EC1.5<1 μM) | A (Fold activation ≥150%)
8 | O=C(Nc1cnc(OC[C@@H](O)CO)cn1)N1c2nc(-c3cccc(C(F)(F)F)c3)ncc2N2CC[C@H]1C2 [Example 23, (8S)—N-(5-((S)-2,3-dihydroxypropoxy)pyrazin-2-yl)-2-(3-(trifluoromethyl)phenyl)-7,8-dihydro-5,8-methanopyrimido[4,5-b][1,4]diazepine-9(6H)-carboxamide] | B (EC1.5 1-25 μM) | A (Fold activation ≥150%)
9 | O=C(Nc1cnnc(OC[C@@H](O)CO)c1)N1c2nc(-c3cccc(C(F)(F)F)c3)ncc2N2CC[C@H]1C2 [Example 54, (8S)—N-(6-((S)-2,3-dihydroxypropoxy)pyridazin-4-yl)-2-(3-(trifluoromethyl)phenyl)-7,8-dihydro-5,8-methanopyrimido[4,5-b][1,4]diazepine-9(6H)-carboxamide] | B (EC1.5 1-25 μM) | A (Fold activation ≥150%)
10 | Cc1ncc(-c2ccnc(NC(=O)N3c4nc(C(=O)NCC(F)(F)F)ncc4N4CC[C@H]3C4)c2)o1 [Example 61, (8S)—N9-(4-(2-methyloxazol-5-yl)-pyridin-2-yl)-N2-(2,2,2-trifluoroethyl)-7,8-dihydro-5,8-methanopyrimido-[4,5-b][1,4]-diazepine-2,9(6H)-dicarboxamide] | B (EC1.5 1-25 μM) | A (Fold activation ≥150%)
11 | Cc1nc(C(=O)N[C@H](C)C(F)(F)F)nc2c1N1CCC[C@@H](C1)N2C(=O)Nc1ccc(OC[C@@H](O)CO)cn1 [Example 118, (9S)—N10-(5-((S)-2,3-dihydroxypropoxy)pyridin-2-yl)-4-methyl-N2-((R)-1,1,1-trifluoropropan-2-yl)-8,9-dihydro-6H-5,9-methanopyrimido[4,5-b][1,4]diazocine-2,10(7H)-dicarboxamide] | A (EC1.5<1 μM) | A (Fold activation ≥150%)
12 | Cc1ccc2c(NC(=O)N3c4nc(C(=O)NC(CO)C(F)(F)F)ncc4N4CCC[C@H]3C4)n[nH]c2n1 (single isomer, unassigned) [Example 66] | A (EC1.5<1 μM) | A (Fold activation ≥150%)
13 | O=C(Nc1ccc(OC[C@@H](O)CO)cn1)N1c2nc(-c3cccc(C(F)(F)F)c3)ncc2N2CCC[C@H]1C2 [Example 98, (9S)—N-(5-((S)-2,3-dihydroxypropoxy)pyridin-2-yl)-2-(3-(trifluoromethyl)phenyl)-8,9-dihydro-6H-5,9-methanopyrimido[4,5-b][1,4]diazocine-10(7H)-carboxamide] | A (EC1.5<1 μM) | A (Fold activation ≥150%)

Source: US20180319810A1, “SUBSTITUTED BRIDGED UREA ANALOGS AS SIRTUIN MODULATORS” (GlaxoSmithKline Intellectual Property (No.2) Limited, priority 2014, published 2018)
